In the NIST ThermoML archive (doi:10.1016/j.fluid.2014.12.027):
± gives the expanded uncertainty stated by the source.

Details: 298 K; 101.33 kPa; Liquid; Vibrating tube method

| SMILES | mass density [kg/m3] |
| --- | --- |
| CCCCCCCCCC [decane] | 722.439 ± 0.28 |
| Cc1ccccc1 [toluene] | 857.606 ± 0.19 |
| OCCOCCOCCO [triethylene glycol] | 1116.05 ± 0.34 |
| OCCOCCO [diethylene glycol] | 1109.16 ± 0.34 |
